Reference: ChEMBL document CHEMBL1146052, “Inhibitors of epidermal growth factor receptor tyrosine kinase: Novel C-5 substituted anilinoquinazolines designed to target the ribose pocket” (Bioorg Med Chem Lett, 2006)
pIC50: −log10 of the molar value.

Key:
[1] = Bioavailability in rat at 5 mg/kg, po and 2 mg/kg, iv; assay type: ADME, organism-based; conditions: in vivo
[2] = Volume of distribution in mouse at 5 mg/kg, po and 2 mg/kg, iv; assay type: ADME, organism-based; conditions: in vivo, read-out: Vdss
[3] = Plasma clearance in mouse at 5 mg/kg, po and 2 mg/kg, iv; assay type: ADME, organism-based
[4] = Percent of unbound ligand in mouse plasma at 5 mg/kg, po and 2 mg/kg, iv; assay type: ADME, organism-based
[5] = Plasma clearance in rat at 5 mg/kg, po and 2 mg/kg, iv; assay type: ADME, organism-based
LoVo = assay: Inhibition of tumor volume in human LoVo cell xenografted in mice at 100 mg/kg, po; conditions: Mus musculus, read-out: Inhibition
[6] = Bioavailability in mouse at 5 mg/kg, po and 2 mg/kg, iv; assay type: ADME, organism-based; conditions: in vivo
[7] = Half life in rat at 5 mg/kg, po and 2 mg/kg, iv; assay type: ADME, organism-based; conditions: in vivo
[8] = target: Epidermal growth factor receptor (Homo sapiens, UniProt P00533); assay: Inhibitory activity against EGFR
Chain of Epidermal growth factor receptor (P00533 whole entry): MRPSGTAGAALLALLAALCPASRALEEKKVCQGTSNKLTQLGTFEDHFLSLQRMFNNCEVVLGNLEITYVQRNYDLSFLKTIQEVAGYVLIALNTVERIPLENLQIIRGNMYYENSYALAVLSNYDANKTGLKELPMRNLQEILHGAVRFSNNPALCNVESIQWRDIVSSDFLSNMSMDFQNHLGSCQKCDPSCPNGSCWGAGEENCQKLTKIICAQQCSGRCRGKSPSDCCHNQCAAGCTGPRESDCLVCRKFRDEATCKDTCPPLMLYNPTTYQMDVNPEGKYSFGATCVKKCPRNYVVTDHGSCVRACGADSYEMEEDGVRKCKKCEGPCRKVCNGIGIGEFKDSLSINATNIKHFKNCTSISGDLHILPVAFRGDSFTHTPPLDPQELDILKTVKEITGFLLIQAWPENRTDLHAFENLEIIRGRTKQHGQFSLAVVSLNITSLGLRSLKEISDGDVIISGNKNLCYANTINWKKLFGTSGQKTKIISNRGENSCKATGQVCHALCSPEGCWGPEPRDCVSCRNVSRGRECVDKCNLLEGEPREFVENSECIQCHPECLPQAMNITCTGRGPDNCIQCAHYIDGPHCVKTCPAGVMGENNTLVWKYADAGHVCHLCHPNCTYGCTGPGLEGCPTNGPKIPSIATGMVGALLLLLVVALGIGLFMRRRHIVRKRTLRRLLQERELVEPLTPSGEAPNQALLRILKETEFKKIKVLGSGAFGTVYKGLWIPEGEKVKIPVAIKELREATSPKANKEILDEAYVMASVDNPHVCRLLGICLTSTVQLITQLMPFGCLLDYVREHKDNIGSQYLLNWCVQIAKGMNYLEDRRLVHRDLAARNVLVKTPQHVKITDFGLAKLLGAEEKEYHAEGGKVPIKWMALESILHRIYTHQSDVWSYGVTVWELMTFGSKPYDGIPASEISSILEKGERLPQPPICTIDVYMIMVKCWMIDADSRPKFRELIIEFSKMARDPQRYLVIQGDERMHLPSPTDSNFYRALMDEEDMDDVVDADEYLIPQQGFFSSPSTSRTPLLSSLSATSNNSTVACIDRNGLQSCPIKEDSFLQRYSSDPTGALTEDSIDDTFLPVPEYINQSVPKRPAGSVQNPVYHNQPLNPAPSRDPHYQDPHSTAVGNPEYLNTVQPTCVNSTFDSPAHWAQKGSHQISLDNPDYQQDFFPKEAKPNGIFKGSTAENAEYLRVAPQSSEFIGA

[9] = Percent of unbound ligand in rat plasma at 5 mg/kg, po and 2 mg/kg, iv; assay type: ADME, organism-based
[10] = Half life in mouse at 5 mg/kg, po and 2 mg/kg, iv; assay type: ADME, organism-based; conditions: in vivo
[11] = Volume of distribution in rat at 5 mg/kg, po and 2 mg/kg, iv; assay type: ADME, organism-based; conditions: in vivo, read-out: Vdss

| SMILES | pIC50 [8] | other results |
| --- | --- | --- |
| COc1cc(OC2CCN(C)CC2)c2c(Nc3ccc(F)c(Cl)c3)ncnc2c1 | 7.68 | bioavailability [1]: 63%; Vd [2]: 8.2 L/kg; clearance [3]: 20 mL/min/kg; fraction unbound [4]: 0.0311; clearance [5]: 66 mL/min/kg; inhibition in vivo at 100 mg/kg (LoVo): 60%; bioavailability [6]: 103%; half-life [7]: 2.9 h; fraction unbound [9]: 0.0251; half-life [10]: 5.2 h; Vd [11]: 12.3 L/kg |
| CN1CCC(Oc2cccc3ncnc(Nc4ccc(F)c(Cl)c4)c23)CC1 | 8.52 |  |
| CCCN1CCC(Oc2cc(OC)cc3ncnc(Nc4ccc(F)c(Cl)c4)c23)CC1 | > 8.70 |  |
| COc1ccc2ncnc(Nc3ccc(F)c(Cl)c3)c2c1OC1CCN(C)CC1 | 6.65 |  |
| CCN1CCC(Oc2cc(OC)cc3ncnc(Nc4ccc(F)c(Cl)c4)c23)CC1 | > 8.70 |  |
| COc1cc(OC2CCN(C(C)=O)CC2)c2c(Nc3ccc(F)c(Cl)c3)ncnc2c1 | 6.06 |  |
| COc1cc(OC2CCNCC2)c2c(Nc3ccc(F)c(Cl)c3)ncnc2c1 | 8.00 |  |
| CN1CCN(CCCOc2cc(OC3CCOCC3)c3c(Nc4ccc(F)c(Cl)c4)ncnc3c2)CC1 | 7.18 |  |
| COc1cc(OC2CCOCC2)c2c(Nc3ccc(F)c(Cl)c3)ncnc2c1 | 5.86 |  |
| COc1cc(OC(C)C)c2c(Nc3ccc(F)c(Cl)c3)ncnc2c1 | 5.09 |  |
| COc1cc(OC2CCN(S(C)(=O)=O)CC2)c2c(Nc3ccc(F)c(Cl)c3)ncnc2c1 | 5.02 |  |
| COCCOc1cc(OC2CCOCC2)c2c(Nc3ccc(F)c(Cl)c3)ncnc2c1 | 6.17 |  |
